Assay results published in ChEMBL document CHEMBL2346515, “Discovery of 4-alkylamino-7-aryl-3-cyanoquinoline LRRK2 kinase inhibitors” (Bioorg Med Chem Lett, 2013).

Columns and labels:
[1] = molecular target: Mitogen-activated protein kinase 10 (Homo sapiens) (UniProt P53779); assay: Inhibition of MAPK10 (unknown origin) at 1 uM by single point assay
[2] = molecular target: Tyrosine-protein kinase JAK1 (Homo sapiens) (UniProt P23458); assay: Inhibition of JAK1 (unknown origin) at 1 uM by single point assay
Plasma = assay: Plasma concentration in mouse expressing mouse LRRK2 G2019S mutant at 100 mg/kg, po; format: ADME, organism-based; parameters: dose 100 mg/kg, route oral; settings: in vivo
[3] = molecular target: T1, Interleukin-1 receptor-associated kinase 4 (Homo sapiens) (UniProt Q9NWZ3); assay: Inhibition of IRAK4 (unknown origin) at 1 uM by single point assay
T1 sequence (whole entry): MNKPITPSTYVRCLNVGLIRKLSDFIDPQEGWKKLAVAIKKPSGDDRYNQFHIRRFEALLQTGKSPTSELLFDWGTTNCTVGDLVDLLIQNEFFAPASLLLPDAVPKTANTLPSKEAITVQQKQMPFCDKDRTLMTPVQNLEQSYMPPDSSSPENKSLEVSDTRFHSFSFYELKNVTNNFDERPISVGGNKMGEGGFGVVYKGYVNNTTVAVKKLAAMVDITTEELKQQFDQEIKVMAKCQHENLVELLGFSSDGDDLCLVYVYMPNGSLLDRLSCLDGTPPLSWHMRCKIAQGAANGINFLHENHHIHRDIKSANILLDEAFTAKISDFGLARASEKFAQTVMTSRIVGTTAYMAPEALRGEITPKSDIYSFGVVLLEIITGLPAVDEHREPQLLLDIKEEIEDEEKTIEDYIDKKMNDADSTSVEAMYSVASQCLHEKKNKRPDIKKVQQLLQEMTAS

Mus musculus = assay: In vivo inhibition of mouse LRRK2 G2019S mutant phosphorylation at Ser935 expressed in mouse brain at 30 mg/kg, po measured after 3 hrs by ELISA; format: functional
Brain = assay: Drug uptake in brain of mouse expressing mouse LRRK2 G2019S mutant at 100 mg/kg, po; format: ADME, organism-based; parameters: dose 100 mg/kg, route oral; settings: in vivo
[4] = molecular target: Tyrosine-protein kinase ABL1 (Homo sapiens) (UniProt P00519); assay: Inhibition of ABL1 (unknown origin) at 1 uM by single point assay
[5] = molecular target: cAMP-dependent protein kinase catalytic subunit alpha (Homo sapiens) (UniProt P17612); assay: Inhibition of PRKACA (unknown origin) at 10 uM by single point assay
[6] = molecular target: Tyrosine-protein kinase Lck (Homo sapiens) (UniProt P06239); assay: Inhibition of LCK (unknown origin) at 10 uM by single point assay
[7] = molecular target: Calcium/calmodulin-dependent protein kinase type II subunit alpha (Homo sapiens) (UniProt Q9UQM7); assay: Inhibition of CAMK2alpha (unknown origin) at 10 uM by single point assay
[8] = molecular target: RAC-alpha serine/threonine-protein kinase (Homo sapiens) (UniProt P31749); assay: Inhibition of AKT1 (unknown origin) at 10 uM by single point assay
[9] = molecular target: Macrophage colony-stimulating factor 1 receptor (Homo sapiens) (UniProt P07333); assay: Inhibition of CSF1R (unknown origin) at 10 uM by single point assay
[10] = molecular target: Rho-associated protein kinase 2 (Homo sapiens) (UniProt O75116); assay: Inhibition of ROCK2 (unknown origin) at 10 uM by single point assay
[11] = molecular target: Tyrosine-protein kinase JAK1 (Homo sapiens) (UniProt P23458); assay: Inhibition of JAK1 (unknown origin) at 10 uM by single point assay
[12] = molecular target: Receptor tyrosine-protein kinase erbB-4 (Homo sapiens) (UniProt Q15303); assay: Inhibition of ErbB4 (unknown origin) at 10 uM by single point assay
[13] = molecular target: Tyrosine-protein kinase SYK (Homo sapiens) (UniProt P43405); assay: Inhibition of SYK (unknown origin) at 10 uM by single point assay
[14] = molecular target: T2, Mitogen-activated protein kinase kinase kinase 7 (Homo sapiens) (UniProt O43318); assay: Inhibition of MAP3K7 (unknown origin) at 10 uM by single point assay
T2 sequence (whole entry): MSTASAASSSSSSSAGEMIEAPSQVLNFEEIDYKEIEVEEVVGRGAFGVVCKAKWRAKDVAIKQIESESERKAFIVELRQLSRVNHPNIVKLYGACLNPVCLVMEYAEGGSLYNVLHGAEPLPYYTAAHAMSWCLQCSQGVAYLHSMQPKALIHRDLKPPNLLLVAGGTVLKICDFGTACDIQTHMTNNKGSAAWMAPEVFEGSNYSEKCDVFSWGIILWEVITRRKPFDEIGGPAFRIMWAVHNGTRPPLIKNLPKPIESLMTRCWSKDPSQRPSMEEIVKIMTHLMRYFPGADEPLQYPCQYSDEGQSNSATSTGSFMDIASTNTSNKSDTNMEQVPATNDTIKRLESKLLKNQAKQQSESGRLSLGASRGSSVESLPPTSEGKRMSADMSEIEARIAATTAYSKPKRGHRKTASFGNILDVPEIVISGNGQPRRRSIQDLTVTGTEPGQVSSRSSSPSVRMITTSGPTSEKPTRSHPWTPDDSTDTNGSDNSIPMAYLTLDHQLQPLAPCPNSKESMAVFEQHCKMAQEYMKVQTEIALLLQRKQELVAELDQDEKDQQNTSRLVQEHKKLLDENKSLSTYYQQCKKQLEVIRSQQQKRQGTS

[15] = molecular target: Protein-tyrosine kinase 2-beta (Homo sapiens) (UniProt Q14289); assay: Inhibition of PTK2B (unknown origin) at 10 uM by single point assay
[16] = molecular target: Receptor-type tyrosine-protein kinase FLT3 (Homo sapiens) (UniProt P36888); assay: Inhibition of FLT3 (unknown origin) at 10 uM by single point assay
[17] = molecular target: Serine/threonine-protein kinase PAK 4 (Homo sapiens) (UniProt O96013); assay: Inhibition of PAK4 (unknown origin) at 10 uM by single point assay
[18] = molecular target: Dual specificity tyrosine-phosphorylation-regulated kinase 1B (Homo sapiens) (UniProt Q9Y463); assay: Inhibition of DYRK1B (unknown origin) at 10 uM by single point assay
[19] = molecular target: PI3-kinase p110-alpha/p85-alpha (Homo sapiens) (UniProt P27986+P42336); assay: Inhibition of PIK3CA/PIK3R1 (unknown origin) at 10 uM by single point assay; format: protein-complex assay
[20] = molecular target: Cyclin-dependent kinase 1/cyclin B1 (Homo sapiens) (UniProt P06493+P14635); assay: Inhibition of CDK1/cyclin B (unknown origin) at 10 uM by single point assay; format: protein-complex assay
[21] = molecular target: Protein kinase C beta type (Homo sapiens) (UniProt P05771); assay: Inhibition of PKCbeta1 (unknown origin) at 10 uM by single point assay
[22] = molecular target: Cyclin-dependent kinase 2/cyclin A (Homo sapiens) (UniProt P24941+P20248+P78396); assay: Inhibition of CDK2/cyclin A (unknown origin) at 10 uM by single point assay; format: protein-complex assay
[23] = molecular target: RAF proto-oncogene serine/threonine-protein kinase (Homo sapiens) (UniProt P04049); assay: Inhibition of RAF1 (unknown origin) at 10 uM by single point assay
[24] = molecular target: T1, Interleukin-1 receptor-associated kinase 4 (Homo sapiens); assay: Inhibition of IRAK4 (unknown origin) at 10 uM by single point assay

Sequence of Tyrosine-protein kinase JAK1 (Homo sapiens) (P23458 whole entry): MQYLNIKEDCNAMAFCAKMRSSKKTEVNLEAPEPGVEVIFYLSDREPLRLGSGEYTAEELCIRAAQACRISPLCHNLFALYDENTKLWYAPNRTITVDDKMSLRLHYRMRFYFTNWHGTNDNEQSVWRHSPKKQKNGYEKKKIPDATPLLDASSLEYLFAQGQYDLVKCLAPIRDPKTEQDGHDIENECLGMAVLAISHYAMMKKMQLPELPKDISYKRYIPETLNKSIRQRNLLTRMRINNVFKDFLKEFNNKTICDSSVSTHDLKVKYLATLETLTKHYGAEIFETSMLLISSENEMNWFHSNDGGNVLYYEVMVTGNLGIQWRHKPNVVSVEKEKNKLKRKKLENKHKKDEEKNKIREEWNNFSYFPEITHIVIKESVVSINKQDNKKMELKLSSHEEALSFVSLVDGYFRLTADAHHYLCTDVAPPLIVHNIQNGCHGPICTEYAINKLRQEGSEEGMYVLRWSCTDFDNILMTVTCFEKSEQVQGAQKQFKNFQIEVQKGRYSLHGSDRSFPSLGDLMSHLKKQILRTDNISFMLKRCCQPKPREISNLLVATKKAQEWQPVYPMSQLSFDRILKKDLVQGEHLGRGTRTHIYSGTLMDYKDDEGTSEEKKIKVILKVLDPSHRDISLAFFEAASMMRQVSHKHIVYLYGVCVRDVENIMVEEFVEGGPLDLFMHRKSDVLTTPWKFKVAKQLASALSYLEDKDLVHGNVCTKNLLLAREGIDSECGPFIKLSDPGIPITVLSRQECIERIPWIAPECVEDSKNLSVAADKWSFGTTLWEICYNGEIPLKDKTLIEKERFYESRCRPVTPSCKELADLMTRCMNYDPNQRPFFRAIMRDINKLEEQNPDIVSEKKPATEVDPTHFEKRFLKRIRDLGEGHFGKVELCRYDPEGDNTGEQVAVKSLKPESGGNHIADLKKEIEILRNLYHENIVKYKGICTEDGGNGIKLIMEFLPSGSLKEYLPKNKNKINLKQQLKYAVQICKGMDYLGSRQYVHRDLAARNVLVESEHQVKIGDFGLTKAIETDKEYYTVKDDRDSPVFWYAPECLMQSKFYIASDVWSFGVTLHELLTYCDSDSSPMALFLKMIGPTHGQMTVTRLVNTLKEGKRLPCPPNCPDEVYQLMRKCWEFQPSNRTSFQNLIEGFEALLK
Sequence of Tyrosine-protein kinase ABL1 (Homo sapiens) (P00519 whole entry): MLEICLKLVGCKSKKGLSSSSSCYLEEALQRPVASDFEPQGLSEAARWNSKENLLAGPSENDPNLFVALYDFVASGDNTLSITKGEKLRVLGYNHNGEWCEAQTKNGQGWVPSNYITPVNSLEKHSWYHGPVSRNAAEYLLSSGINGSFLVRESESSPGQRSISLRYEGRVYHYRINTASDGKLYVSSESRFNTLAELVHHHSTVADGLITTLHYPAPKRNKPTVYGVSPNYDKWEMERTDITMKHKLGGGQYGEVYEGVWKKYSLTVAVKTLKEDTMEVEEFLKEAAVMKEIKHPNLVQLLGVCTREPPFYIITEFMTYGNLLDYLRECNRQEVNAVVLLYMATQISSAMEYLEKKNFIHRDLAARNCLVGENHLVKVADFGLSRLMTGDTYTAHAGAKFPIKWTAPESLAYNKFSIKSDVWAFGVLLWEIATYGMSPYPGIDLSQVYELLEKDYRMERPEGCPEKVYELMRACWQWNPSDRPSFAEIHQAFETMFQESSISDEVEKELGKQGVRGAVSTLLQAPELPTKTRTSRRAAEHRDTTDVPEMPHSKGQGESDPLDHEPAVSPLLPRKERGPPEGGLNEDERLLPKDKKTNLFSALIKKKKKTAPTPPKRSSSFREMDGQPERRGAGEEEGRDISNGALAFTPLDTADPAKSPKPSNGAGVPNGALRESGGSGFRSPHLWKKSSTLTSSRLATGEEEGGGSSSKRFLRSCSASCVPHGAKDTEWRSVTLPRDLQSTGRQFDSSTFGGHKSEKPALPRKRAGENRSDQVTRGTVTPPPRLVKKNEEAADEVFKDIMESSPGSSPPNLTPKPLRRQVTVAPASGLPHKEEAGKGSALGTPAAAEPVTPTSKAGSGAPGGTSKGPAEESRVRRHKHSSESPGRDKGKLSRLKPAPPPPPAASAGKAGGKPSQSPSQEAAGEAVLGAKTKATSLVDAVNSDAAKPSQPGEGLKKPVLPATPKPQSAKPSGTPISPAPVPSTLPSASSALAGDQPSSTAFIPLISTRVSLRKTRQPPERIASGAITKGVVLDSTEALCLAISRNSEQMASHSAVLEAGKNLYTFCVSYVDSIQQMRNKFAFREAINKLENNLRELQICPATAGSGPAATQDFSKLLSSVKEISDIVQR
Sequence of Calcium/calmodulin-dependent protein kinase type II subunit alpha (Homo sapiens) (Q9UQM7 whole entry): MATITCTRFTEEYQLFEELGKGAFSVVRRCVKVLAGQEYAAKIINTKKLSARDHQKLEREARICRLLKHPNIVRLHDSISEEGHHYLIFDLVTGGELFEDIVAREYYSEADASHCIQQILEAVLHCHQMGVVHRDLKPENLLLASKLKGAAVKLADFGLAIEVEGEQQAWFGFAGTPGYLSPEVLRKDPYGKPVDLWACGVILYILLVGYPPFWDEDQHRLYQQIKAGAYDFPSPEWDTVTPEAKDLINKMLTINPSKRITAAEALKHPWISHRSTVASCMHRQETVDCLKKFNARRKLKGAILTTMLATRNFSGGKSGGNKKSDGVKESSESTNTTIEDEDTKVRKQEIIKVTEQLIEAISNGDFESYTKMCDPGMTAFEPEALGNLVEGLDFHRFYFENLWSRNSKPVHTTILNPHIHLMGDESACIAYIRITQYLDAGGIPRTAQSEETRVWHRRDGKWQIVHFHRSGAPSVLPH
Sequence of Protein-tyrosine kinase 2-beta (Homo sapiens) (Q14289 whole entry, looked up): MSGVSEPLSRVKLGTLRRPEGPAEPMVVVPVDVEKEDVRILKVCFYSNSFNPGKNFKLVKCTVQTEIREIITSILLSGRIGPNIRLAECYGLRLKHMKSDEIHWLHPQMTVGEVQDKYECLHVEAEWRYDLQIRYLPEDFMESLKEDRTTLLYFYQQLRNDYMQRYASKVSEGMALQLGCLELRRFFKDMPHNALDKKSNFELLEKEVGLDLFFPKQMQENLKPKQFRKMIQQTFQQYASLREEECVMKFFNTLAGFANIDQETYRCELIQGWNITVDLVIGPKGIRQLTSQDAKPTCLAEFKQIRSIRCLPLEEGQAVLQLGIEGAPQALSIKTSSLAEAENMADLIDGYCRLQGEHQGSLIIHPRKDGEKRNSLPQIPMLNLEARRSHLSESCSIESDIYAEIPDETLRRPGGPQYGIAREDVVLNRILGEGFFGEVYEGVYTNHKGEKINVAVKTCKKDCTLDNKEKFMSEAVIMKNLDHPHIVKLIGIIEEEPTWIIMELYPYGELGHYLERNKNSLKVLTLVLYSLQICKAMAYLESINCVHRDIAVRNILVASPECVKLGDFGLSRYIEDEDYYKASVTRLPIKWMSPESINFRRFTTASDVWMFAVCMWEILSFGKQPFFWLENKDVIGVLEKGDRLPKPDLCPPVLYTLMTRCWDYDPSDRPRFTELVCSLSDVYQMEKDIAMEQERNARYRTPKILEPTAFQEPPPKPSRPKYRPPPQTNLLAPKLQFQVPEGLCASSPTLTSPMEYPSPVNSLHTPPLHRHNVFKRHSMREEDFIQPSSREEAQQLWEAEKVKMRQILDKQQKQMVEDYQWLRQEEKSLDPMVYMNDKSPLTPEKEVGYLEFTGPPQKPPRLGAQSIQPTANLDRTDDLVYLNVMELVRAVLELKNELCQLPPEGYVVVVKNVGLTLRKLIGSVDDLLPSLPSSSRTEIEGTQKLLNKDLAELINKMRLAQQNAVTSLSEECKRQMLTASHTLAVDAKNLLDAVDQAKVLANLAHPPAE
Sequence of Receptor-type tyrosine-protein kinase FLT3 (Homo sapiens) (P36888 whole entry): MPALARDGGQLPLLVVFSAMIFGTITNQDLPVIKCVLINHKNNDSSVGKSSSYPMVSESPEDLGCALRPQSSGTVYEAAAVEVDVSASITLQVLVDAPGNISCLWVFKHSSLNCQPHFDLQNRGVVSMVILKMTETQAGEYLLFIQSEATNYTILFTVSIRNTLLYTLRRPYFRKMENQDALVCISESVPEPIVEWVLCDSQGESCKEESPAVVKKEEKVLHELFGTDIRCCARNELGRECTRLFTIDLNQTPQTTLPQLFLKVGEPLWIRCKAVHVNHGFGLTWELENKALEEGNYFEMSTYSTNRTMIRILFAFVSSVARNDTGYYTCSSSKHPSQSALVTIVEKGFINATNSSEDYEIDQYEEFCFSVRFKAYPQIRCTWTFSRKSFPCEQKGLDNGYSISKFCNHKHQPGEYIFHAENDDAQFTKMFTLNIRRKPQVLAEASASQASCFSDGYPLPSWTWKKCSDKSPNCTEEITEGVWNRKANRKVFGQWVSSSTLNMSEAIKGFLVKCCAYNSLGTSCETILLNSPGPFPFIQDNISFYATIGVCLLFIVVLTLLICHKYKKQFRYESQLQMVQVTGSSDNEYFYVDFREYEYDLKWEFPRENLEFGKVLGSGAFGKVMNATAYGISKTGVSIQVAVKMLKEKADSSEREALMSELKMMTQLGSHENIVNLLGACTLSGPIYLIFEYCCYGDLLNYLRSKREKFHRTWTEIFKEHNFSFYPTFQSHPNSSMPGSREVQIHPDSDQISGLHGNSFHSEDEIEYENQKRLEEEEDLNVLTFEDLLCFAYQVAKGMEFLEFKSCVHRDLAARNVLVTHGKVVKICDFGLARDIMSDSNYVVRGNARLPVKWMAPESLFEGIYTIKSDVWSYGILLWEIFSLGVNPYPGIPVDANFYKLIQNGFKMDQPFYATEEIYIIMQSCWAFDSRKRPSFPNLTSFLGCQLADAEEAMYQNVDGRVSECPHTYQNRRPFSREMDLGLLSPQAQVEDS

CC(C)Nc1c(C#N)cnc2cc(-c3cnn(C)c3)ccc12
inhibition [1]: 4%
inhibition [2]: 3%
Cp (Plasma): 31.8 ng/mL
inhibition [3]: 68%
inhibition in vivo at 30 mg/kg (Mus musculus): 30%
Drug uptake (Brain): 81.1 ng/mL
inhibition [4]: 55%

C[C@@H](Nc1c(C#N)cnc2cc(-c3ccc(-n4ccoc4=O)cc3)ccc12)C1CC1
inhibition [5]: -3%
inhibition [6]: 18%
inhibition [7]: 30%
inhibition [8]: -2%
inhibition [9]: 39%
inhibition [10]: 16%
inhibition [11]: 4%
inhibition [12]: 7%
inhibition [13]: 71%
inhibition [14]: -5%
inhibition [15]: 16%
inhibition [16]: 44%
inhibition [17]: 19%
inhibition [18]: 24%
inhibition [19]: 13%
inhibition [20]: 12%
inhibition [21]: -2%
inhibition [22]: 0%
inhibition [23]: 6%
inhibition [24]: 10%

CC(C)Nc1c(C#N)cnc2cc(-c3ccc(S(C)(=O)=O)cc3)ccc12
inhibition [2]: 16%
inhibition [3]: 29%
inhibition [4]: 39%
